The results in this text go back to BindingDB's records for patent US11691989 (Ascentage Pharma (Suzhou), 2023).

The experiment addresses T1, Induced myeloid leukemia cell differentiation protein Mcl-1 [171-323] (Homo sapiens, UniProt Q07820).
T1 construct: 171-323
The experiment is described as follows: Inhibition of Mcl-1 by fluorescence polarization (FP) assay. The procedure:
The relative binding potency of representative Compounds of the Disclosure was determined by a fluorescence polarization (FP) assay. The method used a fluorescein labelled peptide (FAM-Bid) which binds to the Mcl-1 protein leading to an increased anisotropy measured in milli-polarization (mP) values using a plate reader. […] A 10-points serial dilution of each compound was prepared in DMSO and 5 μL solution was transferred into flat bottomed, 96-well back plate (final DMSO concentration […]). 120 μL of Buffer (PBS, 0.01% BGG (Sigma Cat. #SRE0011), 0.01% Triton X-100), containing the Fluorescein labelled peptide (Final concentration 2 nM) and Mcl-1 protein (final concentration 20 nM) was then added. […] 10-points dose response curves were plotted with GraphPad software using Sigmoidal Dose-Response Model and the IC50 values were determined by nonlinear regression fitting of the competition curves.
On the technique in general: Polarisation of emitted light reports the rotation of a fluorescent probe.

T1 sequence (Q07820 171-323): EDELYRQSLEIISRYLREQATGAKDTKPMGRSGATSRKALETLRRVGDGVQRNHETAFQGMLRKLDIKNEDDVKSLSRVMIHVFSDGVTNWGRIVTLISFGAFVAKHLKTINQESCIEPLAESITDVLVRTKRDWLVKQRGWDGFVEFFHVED

One may read the IC50 as the concentration that inhibits the measured activity by half. Lower therefore signals greater potency in that assay. In the case of `Cc1c(C(=O)O)n2c3ccc(Cl)c(c13)-c1c(nn(C)c1C)CSCc1cc(n(C(C)C)n1)CSc1cc(c3ccc(F)cc3c1)OCCC2` [US11691989, Compound 17], the IC50 was found to be 15 nM.

With `Cc1c2c(nn1C)CSCc1cc(n(C)n1)CSc1cc(c3ccc(F)cc3c1)OCCCn1c(C(=O)O)cc3c-2c(Cl)ccc31` [US11691989, Compound 13], the IC50 was 19 nM.
